Assay results as given in US20090137577A1, “HETEROCYCLIC COMPOUNDS” (Pfizer Inc., priority 2007, published 2009).

Target: T1, mGluR2 receptor (metabotropic glutamate receptor 2) (Homo sapiens, UniProt Q14416)
T1 construct: expressed in transfected cells
Experiment: mGluR2 potentiator screen (FLIPR, EC10-EC20 glutamate challenge);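 note: HEK cells stably expressing human mGluR2 with GL15 G protein, Fluo-4 calcium fluorescence read on FLIPR, compounds added before an EC10-EC20 glutamate challenge to detect potentiation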
Type: cell-based
Conditions: geometric mean; read-out: mGluR 2 EC50 (geometric mean)

T1 sequence (Q14416 19-872, species assumed): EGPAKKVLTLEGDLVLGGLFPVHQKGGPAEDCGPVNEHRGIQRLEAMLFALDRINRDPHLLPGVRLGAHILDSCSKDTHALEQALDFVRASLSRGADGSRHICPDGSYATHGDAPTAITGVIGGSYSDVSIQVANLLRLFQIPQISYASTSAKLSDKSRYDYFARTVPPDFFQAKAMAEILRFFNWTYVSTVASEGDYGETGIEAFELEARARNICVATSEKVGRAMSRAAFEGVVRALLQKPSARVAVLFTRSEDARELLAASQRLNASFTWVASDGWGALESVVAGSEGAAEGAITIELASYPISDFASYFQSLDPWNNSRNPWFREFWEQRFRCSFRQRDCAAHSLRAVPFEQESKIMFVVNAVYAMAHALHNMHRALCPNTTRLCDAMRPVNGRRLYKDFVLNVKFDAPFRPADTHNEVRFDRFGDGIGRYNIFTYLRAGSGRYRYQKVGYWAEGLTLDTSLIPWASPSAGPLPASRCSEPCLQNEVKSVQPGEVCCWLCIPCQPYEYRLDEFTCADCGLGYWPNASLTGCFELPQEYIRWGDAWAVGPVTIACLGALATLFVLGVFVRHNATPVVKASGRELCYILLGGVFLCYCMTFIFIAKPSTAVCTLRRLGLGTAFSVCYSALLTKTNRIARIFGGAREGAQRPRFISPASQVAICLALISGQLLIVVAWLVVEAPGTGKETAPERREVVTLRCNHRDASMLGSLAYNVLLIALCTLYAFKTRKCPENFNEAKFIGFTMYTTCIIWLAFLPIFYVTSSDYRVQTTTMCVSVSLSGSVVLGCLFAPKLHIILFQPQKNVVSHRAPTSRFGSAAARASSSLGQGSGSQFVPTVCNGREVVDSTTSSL

| SMILES | EC50 |
| --- | --- |
| CC(C)CCOc1ccc(CN2CC(C)OC2=O)cc1 (stereo not drawn) [Example 143] | 75.5 nM |
| O=C1OC(c2ccccc2)CN1Cc1ccc(OC2CCOCC2)cc1 (stereo not drawn) [Example 36] | 571 nM |
| CC(=O)c1ccc(-c2ccc(CN3C[C@@H](C)OC3=O)cc2)cc1 [Example 171] | 60.2 nM |
| COc1cc(COc2ccc(CN3CC(C)OC3=O)cc2)cc(OC)c1 (stereo not drawn) [Example 113] | 244 nM |
| CC(Oc1ccc(CN2CCN(C3CC[C@@H](C)C3)CC2=O)cc1)C1CCCCC1 (stereo partly drawn) [Example 224] | 1100 nM |
| C[C@H]1CN(Cc2ccc(-c3ccc(C(F)(F)F)cc3)cc2)C(=O)O1 [Example 63, (5S)-5-methyl-3-{[4′-(trifluoromethyl)biphenyl-4-yl]methyl}-1,3-oxazolidin-2-one] | 141 nM |
| CC(Oc1ccc(CN2CCN(CC(C)(C)C)CC2=O)cc1)C1CCCCC1 (stereo not drawn) [Example 223] | 584 nM |
| COc1ccccc1COc1ccc(CN2CC(C)OC2=O)cc1 (stereo not drawn) [Example 118] | 89.4 nM |
| COc1cc(F)ccc1-c1ccc(CN2C[C@@H](C)OC2=O)cc1 [Example 239] | < 105 nM |
| C[C@@H]1CN(Cc2ccc(CCc3ccccc3)cc2)C(=O)O1 [Example 318, (5R)-5-methyl-3-[4-(2-phenylethyl)benzyl]-1,3-oxazolidin-2-one] | 111 nM |
| COc1ccc(-c2ccc(CN3C[C@@H](C)OC3=O)cc2)cc1F [Example 170] | 34.2 nM |
| CCOc1ccccc1COc1ccc(CN2CC(C)OC2=O)cc1 (stereo not drawn) [Example 114] | 25.7 nM |
| O=C1OC(c2ccccc2)CN1Cc1ccc(OCC2CCC2)cc1 (stereo not drawn) [Example 9] | 135 nM |
| C[C@@H]1CN(Cc2cnc(-c3cccc(F)c3F)c(F)c2)C(=O)O1 [Example 298, (5R)-3-{[6-(2,3-Difluorophenyl)-5-fluoropyridin-3-yl]methyl}-5-methyl-1,3-oxazolidin-2-one] | 1360 nM |
| CC1CN(Cc2ccc(OC[C@@H](C)c3ccccc3)cc2)C(=O)O1 (stereo partly drawn) [Example 111] | 48.3 nM |
| CCCC(C)CN1CCN(Cc2ccc(OC(C)C3CCCCC3)cc2)C(=O)C1 (stereo not drawn) [Example 214] | 712 nM |
| O=C1OC[C@@H]2CCCC[C@@H]2N1Cc1ccc(OCC2CCC2)cc1 [Example 1] | 761 nM |
| C[C@@H]1CN(Cc2ccc(-c3ccc(C(F)(F)F)cc3C(F)(F)F)cc2)C(=O)O1 [Example 275] | 47.4 nM |
| C[C@H]1CN(Cc2ccc(O[C@H](C)c3ccccc3)cc2)C(=O)O1 [Example 68] | 299 nM |
| CC1CN(Cc2ccc(OCCCOc3ccc(F)cc3)cc2)C(=O)O1 (stereo not drawn) [Example 152] | 46 nM |
| Cc1ccc(-c2ccc(CN3C[C@@H](C)OC3=O)cn2)c(F)c1 [Example 257] | 429 nM |
| COc1ccc(F)c(-c2ccc(CN3C[C@@H](C)OC3=O)cn2)c1 [Example 260] | 858 nM |
| Cc1ccc(-c2ccc(CN3C[C@@H](C)OC3=O)cc2)c(F)c1 [Example 232] | < 39.2 nM |
| C[C@@H]1CN(Cc2ccc(-c3cc(Cl)cc(Cl)c3)cc2)C(=O)O1 [Example 187, (5R)-3-[(3′,5′-dichlorobiphenyl-4-yl)methyl]-5-methyl-1,3-oxazolidin-2-one] | 113 nM |
| Cc1cc(-c2ccc(CN3C[C@@H](C)OC3=O)cc2)ccc1F [Example 160] | 10.6 nM |

| SMILES | EC50 |
| --- | --- |
| C[C@@H]1CN(Cc2ccc(-c3ccc(OC(F)(F)F)cc3)nc2)C(=O)O1 [Example 255, (5R)-5-methyl-3-({6-[4-(trifluoromethoxy)phenyl]pyridin-3-yl}methyl)-1,3-oxazolidin-2-one] | 463 nM |
| CC1CN(Cc2ccc(OCCCc3ccccc3)cc2)C(=O)O1 (stereo not drawn) [Example 104] | 37.9 nM |
| C[C@@H]1CN(Cc2ccc(-c3ccc(C(F)(F)F)cc3)cc2)C(=O)O1 [Example 64, (5R)-5-methyl-3-{[4′-(trifluoromethyl)biphenyl-4-yl]methyl}-1,3-oxazolidin-2-one] | 61 nM |
| CCOc1cccc(COc2ccc(CN3CC(C)OC3=O)cc2)c1 (stereo not drawn) [Example 138] | 87.3 nM |
| CC1CN(Cc2ccc(OC3CCc4ccccc43)cc2)C(=O)O1 (stereo not drawn) [Example 140] | 85.8 nM |
| CC(Oc1ccc(CN2CCN(CC3CCCC3)CC2=O)cc1)C1CCCCC1 (stereo not drawn) [Example 202] | 291 nM |
| O=C1OC(c2ccccc2)CN1Cc1ccc(OCc2ccccn2)cc1 (stereo not drawn) [Example 5] | 1280 nM |
| O=C1OC(c2ccccc2)CN1Cc1ccc(OC2CCCCC2)cc1 (stereo not drawn) [Example 40] | 155 nM |
| Cc1oc(-c2ccccc2)nc1CCOc1ccc(CN2CC(C)OC2=O)cc1 (stereo not drawn) [Example 107] | 273 nM |
| CC1CN(Cc2ccc(OCCC3CC3)cc2)C(=O)O1 (stereo not drawn) [Example 93] | 187 nM |
| C[C@@H]1CN(Cc2ccc(Oc3ccc(F)cc3)cc2)C(=O)O1 [Example 179] | 137 nM |
| CC(Oc1ccc(CN2CC(c3ccccc3)OC2=O)cc1)c1ccccc1 (stereo not drawn) [Example 39] | 244 nM |
| C[C@@H]1CN(Cc2ccc(-c3ccc(Cl)cc3F)nc2)C(=O)O1 [Example 210, (5R)-3-{[6-(4-Chloro-2-fluorophenyl)pyridin-3-yl]methyl}-5-methyl-1,3-oxazolidin-2-one] | 424 nM |
| Cc1cc(F)ccc1-c1ccc(CN2C[C@@H](C)OC2=O)cc1F [Example 290] | 130 nM |
| C[C@@H]1CN(Cc2ccc(-c3ccc(Cl)c(Cl)c3)cc2)C(=O)O1 [Example 182] | 74.6 nM |
| CC1CN(Cc2ccc(OCc3ccc(-n4cccn4)cc3)cc2)C(=O)O1 (stereo not drawn) [Example 131] | 125 nM |
| Cc1ccc(F)cc1COc1ccc(CN2CC(C)OC2=O)cc1 (stereo not drawn) [Example 142] | 43.5 nM |
| COc1cccc(OC)c1-c1ccc(CN2C[C@@H](C)OC2=O)cc1 [Example 161] | 227 nM |
| C[C@@H]1CN(Cc2ccc(OCCC(C)(C)C)cc2)C(=O)O1 [Example 213] | 20.1 nM |
| COc1ccc(F)cc1-c1ccc(CN2C[C@@H](C)OC2=O)cn1 [Example 267] | 1160 nM |
| COc1cccc(F)c1-c1ccc(CN2C[C@@H](C)OC2=O)cc1 [Example 172] | 31.4 nM |
| CC[C@H](Oc1ccc(CN2CC(C)OC2=O)cc1)c1ccccc1 (stereo partly drawn) [Example 148] | < 13.4 nM |
| CC1CCCC1N1CCN(Cc2ccc(OC(C)C3CCCCC3)cc2)C(=O)C1 (stereo not drawn) [Example 225] | 638 nM |
| CCC(COc1ccc(CN2CC(C)OC2=O)cc1)(c1ccccc1)N(C)C (stereo not drawn) [Example 141] | 995 nM |
| C[C@@H]1CN(Cc2ccc(-c3cc(F)cc(F)c3)cc2)C(=O)O1 [Example 246] | 445 nM |

| SMILES | EC50 |
| --- | --- |
| C[C@H]1[C@@H](c2ccccc2)OC(=O)N1Cc1ccc(OC2CCCCC2)cc1 [Example 56] | 356 nM |
| C[C@@H]1CN(Cc2ccc(-c3ccc(OC(F)F)cc3Cl)nc2)C(=O)O1 [Example 312] | 578 nM |
| C[C@@H]1CN(Cc2ccc(-c3ccc(F)c(F)c3)cc2)C(=O)O1 [Example 245] | 92.9 nM |
| CC[C@H](C)COc1ccc(CN2CC(C)OC2=O)cc1 (stereo partly drawn) [Example 100] | 55.9 nM |
| CC(=O)c1cccc(-c2ccc(CN3C[C@@H](C)OC3=O)cc2)c1 [Example 193] | 514 nM |
| C[C@@H]1CN(Cc2ccc(O[C@H](C)c3ccccc3)cc2)C(=O)O1 [Example 67, (5R)-5-methyl-3-{4-[(1R)-1-phenylethoxy]benzyl}-1,3-oxazolidin-2-one] | 240 nM |
| CC(C)N1Cc2ccc(-c3ccc(CN4C[C@@H](C)OC4=O)cc3)cc2C1 [Example 174] | 1620 nM |
| CC1CN(Cc2ccc(OCCc3cccc(F)c3)cc2)C(=O)O1 (stereo not drawn) [Example 101] | 188 nM |
| C[C@@H]1CN(Cc2ccc(CN3CCc4ccccc43)cc2)C(=O)O1 [Example 301, (5R)-3-[4-(2,3-Dihydro-1H-indol-1-ylmethyl)benzyl]-5-methyl-1,3-oxazolidin-2-one] | 389 nM |
| C[C@@H]1CN(Cc2ccc(NCC3CCCCC3)nc2)C(=O)O1 [Example 283, (5R)-3-({6-[(Cyclohexylmethyl)amino]pyridin-3-yl}methyl)-5-methyl-1,3-oxazolidin-2-one] | 1290 nM |
| CC(Oc1ccc(CN2CC(C)(C)COC2=O)cc1)C1CCCCC1 (stereo not drawn) [Example 47] | 247 nM |
| CC1CN(Cc2ccc(OCCC(C)(C)C)cc2)C(=O)O1 (stereo not drawn) [Example 96] | < 14.9 nM |
| C[C@@H]1CN(Cc2ccc(-c3cccc4cccnc34)cc2)C(=O)O1 [Example 173] | 930 nM |
| COc1ccc(F)cc1-c1ccc(CN2C[C@@H](C)OC2=O)cc1 [Example 166] | 24.6 nM |
| CC(Oc1ccc(CN2CCN(C(C)C3CCC3)CC2=O)cc1)C1CCCCC1 (stereo not drawn) [Example 221] | 794 nM |
| CC(C1CCC1)N1CCN(Cc2ccc(-c3ccc(F)cc3F)cc2)C(=O)C1 (stereo not drawn) [Example 306, 4-(1-Cyclobutylethyl)-1-[(2′,4′-difluorobiphenyl-4-yl)methyl]piperazin-2-one] | 327 nM |
| CCCN1CCN(Cc2ccc(OC(C)C3CCCCC3)cc2)C(=O)C1 (stereo not drawn) [Example 215] | 435 nM |
| C[C@H](Oc1ccc(CN2C[C@H](C)OC2=O)cc1)c1ccccc1 [Example 70] | 209 nM |
| C[C@@H]1CN(Cc2ccc(-c3ccc(C(F)(F)F)cc3C(F)(F)F)nc2)C(=O)O1 [Example 276] | 788 nM |
| C[C@@H]1CN(Cc2ccc(-c3ccc4c(c3)OCCCO4)cc2)C(=O)O1 [Example 189] | 83.7 nM |
| CC1CN(Cc2ccc(OCc3c(F)cccc3F)cc2)C(=O)O1 (stereo not drawn) [Example 106] | 73.7 nM |
| O=C1OC(c2cccnc2)CN1Cc1ccc(-c2ccc(F)cc2F)cc1 (stereo not drawn) [Example 302, 3-[(2′,4′-Difluorobiphenyl-4-yl)methyl]-5-pyridin-3-yl-1,3-oxazolidin-2-one] | 78.9 nM |
| CCN(C)CC1CN(Cc2ccc(-c3ccc(F)cc3F)cc2)C(=O)O1 (stereo not drawn) [Example 304, 3-[(2′,4′-difluorobiphenyl-4-yl)methyl]-5-{[ethyl(methyl)amino]methyl}-1,3-oxazolidin-2-one] | 581 nM |
| C[C@@H]1CN(Cc2ccc(CN3CCc4cc(Cl)ccc43)cc2)C(=O)O1 [Example 300, (5R)-3-{4-[(5-Chloro-2,3-dihydro-1H-indol-1-yl)methyl]benzyl}-5-methyl-1,3-oxazolidin-2-one] | 94.5 nM |
| Cc1cc(CN2C[C@@H](C)OC2=O)ccc1OCc1ccc(C(F)(F)F)cc1 [Example 284, (5R)-5-Methyl-3-(3-methyl-4-{[4-(trifluoromethyl)benzyl]oxy}benzyl)-1,3-oxazolidin-2-one] | 309 nM |
